Experiment [1] has as its target T1, human Kv1.3 (Homo sapiens, UniProt P22001).
T1 construct: expressed in transfected cells; host or cells: stably transfected cells
Nature of the experiment: Kv1.3 Autopatch Electrophysiology. The format is cell-based. The following applies: 1 μM compound, CHO cells stably transfected with human Kv1.3, AutoPatch whole cell mode, room temperature; for inhibition at 1 µM: read-out: Kv 1.3% Inhibition at 1 μM. The procedure:
Kv1.3 Autopatch Electrophysiology Method
Cells stably transfected with cDNA for human Kv1.3 (in pcDNA3.1) were grown in Ex-cell 302 serum-free medium for CHO cells, supplemented with 10 μl/ml [100×] glutamine, 500 μg/ml G418 ([…]), and 1% HT supplement (50×, hypoxanthine and thymidine). Compounds were tested on these cells using the AutoPatch technology in whole cell mode.
The external bathing solution contained (in mM): 150 NaCl, 10 KCl, 1 MgCl2, 3 CaCl2, 10 HEPES, pH 7.4 with NaOH. Patch pipettes were filled with an electrode solution of composition (in mM): 100 K-Gluconate, 20 KCl, 1 MgCl2, 1 CaCl2, 10 HEPES, 11 EGTA, 5 ATP—Na2, 2 Glutathione pH 7.2 with KOH.
(§1) Compounds were dissolved in DMSO (100%) and made up in the external bather at a concentration of 1 μM. All experiments were conducted at room temperature (22-24° C.).
(§2) A cell suspension (10 ml), with a density of 100,000 cells/ml, was aliquoted into a 15 ml centrifuge tube and transferred to an incubator (37° C., 5% CO2) for approximately one hour before use. Following 60 min incubation, a tube was taken and centrifuged at 1000 rpm for 4 mins at room temperature. 9.5 ml supernatant was thence discarded, leaving a cell pellet at the bottom of the tube. The pellet was then resuspended using 100 μl of cold (4° C.), filtered (0.22 μm), 0.2% BSA/bather solution (0.02 g BSA/10 ml bather). The bottom of the tube was manually agitated gently until the solution became cloudy with cells. The 100 μl cell resuspension solution was then stored on the bench at 4° C. (using a Peltier-based temperature control device) until used.
(§3) A length of capillary glass (1B150F-4, WPI) was dipped into the cell suspension solution, such that ˜3 cm column of fluid was taken up by capillary action. A Ag/AgCl wire was dropped into the non-dipped end of the capillary also. The outside of the solution-filled end of the capillary was then dried and the capillary was loaded into the AutoPatch™. Borosilicate glass patch pipettes (from 1.5 mm OD, thin-walled filamented, GC150-TF capillary glass, Harvard) were pulled using a DMZ pipette puller (Zeitz Instruments), and were back-filled using the internal pipette solution, being careful that no bubbles remain at the tip or in the body of the pipette. Patch pipettes typically had resistances of 2.3-3.5 MΩ. Once filled, the pipette tip and a proportion of the shaft (˜15 mm) were dipped into Sigmacote (Sigma). The recording pipette was then loaded into the AutoPatch™. Automated patch-clamping was initiated by the operator, but thereafter AutoPatch.exe continued the experiment providing that pre-set conditions and criteria were satisfied.
(§4) Whole cell patch-clamp recordings were made using the AutoPatch™ rig, which incorporated an EPC9 or EPC10 amplifier (HEKA, Germany) under control of Pulse software (v8.54 or v8.76, HEKA, Germany), a motion controller with 2 translators (Newport, UK), valve controller (VF1) and a c-level suction device all at room temperature (22-24° C.). This equipment was completely under the control of AutoPatch.exe and operator intervention was only made when there was a requirement to refill the drug reservoirs or to prevent the loss of a cell due to a technical error. Cells with an Rseries greater than 18 MΩ were discounted from the experiment.
Qualification stages prior to perfusion and drug application ensured that the observed current met the criteria for the experiment. Only those cells with an IK>400 pA were used for experiments. Cells were continuously perfused with external solution at a flow rate of 1.8-2 ml/minute. […] Online analysis of the hKv1.3 current during the application of compounds was performed by the AutoPatch™ software. Voltage-step protocols and analysis of data was performed as described for conventional electrophysiology.
(§5) Electrophysiology voltage-step protocols and analysis of data was performed as follows. Data was sampled at 5 kHz, and filtered with a −3 dB bandwidth of 2.5 kHz. Cells were held at a voltage of −80 mV. […]

Experiment [2] has as its target T2, human Kv1.5 (Homo sapiens, UniProt P22460).
T2 construct: expressed in transfected cells; host or cells: stably transfected cells
As to the kind of experiment: Kv1.5 Autopatch Electrophysiology. The format is cell-based. The following applies: 1 μM compound, CHO cells stably transfected with human Kv1.5, AutoPatch whole cell mode, room temperature; for inhibition at 1 µM: read-out: Kv 1.5% Inhibition at 1 μM. The procedure:
Kv1.5 Autopatch Electrophysiology Method
Cells stably transfected with cDNA for human Kv1.5 (in pEF6::VA-His-TOPO) were grown in Ex-cell 302 serum-free medium for CHO cells, supplemented with 10 μl/ml [100×] glutamine, 5 μg/ml blasticidin and 1% HT supplement (50×, hypoxanthine and thymidine). Compounds were tested on these cells using the AutoPatch technology in whole cell mode.
The external bathing solution contained (in mM): 150 NaCl, 10 KCl, 1 MgCl2, 3 CaCl2, 10 HEPES, pH 7.4 with NaOH. Patch pipettes were filled with an electrode solution of composition (in mM): 160 KCl, 0.5 MgCl2, 10 HEPES, 1 EGTA, pH 7.4 with KOH.
as §1, §2, §3, §4
Qualification stages prior to perfusion and drug application ensured that the observed current met the criteria for the experiment. Only those cells with an IK>500 pA were used for experiments. Cells were continuously perfused with external solution at a flow rate of 1.8-2 ml/minute. […] Online analysis of the hKv1.5 current during the application of compounds was performed by the AutoPatch™ software. Voltage-step protocols and analysis of data was performed as described for conventional electrophysiology.
as §5

Each structure is given as a SMILES string.

T2 sequence (P22460 whole entry): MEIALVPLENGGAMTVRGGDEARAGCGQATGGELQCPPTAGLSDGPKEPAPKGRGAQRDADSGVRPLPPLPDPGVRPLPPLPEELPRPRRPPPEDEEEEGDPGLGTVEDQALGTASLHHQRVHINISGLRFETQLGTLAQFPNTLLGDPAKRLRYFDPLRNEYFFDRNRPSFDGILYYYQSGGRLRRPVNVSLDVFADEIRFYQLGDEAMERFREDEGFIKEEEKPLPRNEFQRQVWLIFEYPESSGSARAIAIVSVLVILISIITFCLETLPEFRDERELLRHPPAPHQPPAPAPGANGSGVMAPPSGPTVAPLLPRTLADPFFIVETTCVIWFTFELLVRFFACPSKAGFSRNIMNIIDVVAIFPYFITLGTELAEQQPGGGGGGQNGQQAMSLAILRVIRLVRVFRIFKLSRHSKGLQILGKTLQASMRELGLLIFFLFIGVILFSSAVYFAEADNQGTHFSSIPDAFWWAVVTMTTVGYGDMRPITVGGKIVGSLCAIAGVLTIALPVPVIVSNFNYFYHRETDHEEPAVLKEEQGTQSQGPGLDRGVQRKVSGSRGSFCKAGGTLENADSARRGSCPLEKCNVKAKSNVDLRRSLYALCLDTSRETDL
T1 sequence (P22001 whole entry): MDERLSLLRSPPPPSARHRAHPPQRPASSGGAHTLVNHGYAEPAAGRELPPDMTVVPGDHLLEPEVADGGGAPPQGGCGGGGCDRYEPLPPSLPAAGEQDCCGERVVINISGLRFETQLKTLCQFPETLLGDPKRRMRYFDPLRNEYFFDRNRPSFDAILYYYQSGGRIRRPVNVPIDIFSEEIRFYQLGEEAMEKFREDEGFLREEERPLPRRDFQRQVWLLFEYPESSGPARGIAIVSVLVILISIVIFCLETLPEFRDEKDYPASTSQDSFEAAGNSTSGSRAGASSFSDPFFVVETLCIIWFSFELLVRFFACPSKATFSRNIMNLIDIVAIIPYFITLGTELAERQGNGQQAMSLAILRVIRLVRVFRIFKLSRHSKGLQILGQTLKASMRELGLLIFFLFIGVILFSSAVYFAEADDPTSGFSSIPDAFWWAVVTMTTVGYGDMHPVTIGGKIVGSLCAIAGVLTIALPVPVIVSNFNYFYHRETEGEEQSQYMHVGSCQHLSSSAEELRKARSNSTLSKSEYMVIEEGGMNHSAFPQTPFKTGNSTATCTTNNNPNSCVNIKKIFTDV

On to `COc1cccc(-c2csc3ccnc(NCc4ccc5c(c4)OCCO5)c23)c1` [Example 19, (2,3-Dihydro-benzo[1,4]dioxin-6-ylmethyl)-[3-(3-methoxy-phenyl)-thieno[3,2-c]pyridin-4-yl)-amine], for which the inhibition (as a rule, the share of the control response that was lost under treatment) at 1 µM in experiment [1] came out at 73.5%; in experiment [2], 75.6%.
As to `c1csc(CNc2nccc3scc(-c4ccc5c(c4)OCO5)c23)c1` [Example 16, (3-Benzo[1,3]dioxol-5-yl-thieno[3,2-c]pyridin-4-yl)-thiophen-2-ylmethyl-amine], the inhibition at 1 µM in experiment [1] was 90.3%; in experiment [2], 81.2%.
Turning to `Cc1cccnc1CNc1nccc2scc(-c3ccccc3)c12` [Example 31, (3-Methyl-pyridin-2-ylmethyl)-(3-phenyl-thieno[3,2-c]pyridin-4-yl)-amine], in experiment [1], the “Kv 1.3% Inhibition at 1 μM” value is 71.8%. Moreover, the “Kv 1.5% Inhibition at 1 μM” value in experiment [2] amounted to 78.4%.
With `COc1cccc(-c2csc3ccnc(NCc4cccs4)c23)c1` [Example 13, [3-(3-Methoxy-phenyl)-thieno[3,2-c]pyridin-4-yl]-thiophen-2-ylmethyl-amine], the inhibition at 1 µM in experiment [1] came to 83.2%; in experiment [2], 89.4%.
Regarding `c1ccc(CCCCNc2nccc3scc(-c4ccccc4)c23)cc1` [Example 30, (4-Phenyl-butyl)-(3-phenyl-thieno[3,2-c]pyridin-4-yl)-amine], in experiment [1], the “Kv 1.3% Inhibition at 1 μM” value turned out to be 82.8%. Also, the “Kv 1.5% Inhibition at 1 μM” value in experiment [2] came out at 65.8%.
For `Cc1ccc(-c2csc3c(-c4cccc(F)c4)cnc(NCc4ccccc4)c23)cc1` [Example 44, Benzyl-[7-(3-fluoro-phenyl)-3-p-tolyl-thieno[3,2-c]pyridin-4-yl]-amine], the inhibition at 1 µM in experiment [1] worked out at 29.6%; in experiment [2], 18.8%.
On the same counts, the results for `Fc1ccc(-c2csc3ccnc(NCc4ccco4)c23)cc1` [Example 27, [3-(4-Fluoro-phenyl)-thieno[3,2-c]pyridin-4-yl]-furan-2-ylmethyl-amine] are 45.9% and 70.4%.
On the same counts, the results for `Fc1ccc(-c2csc3ccnc(NCc4cccs4)c23)cc1` [Example 15, [3-(4-Fluoro-phenyl)-thieno[3,2-c]pyridin-4-yl]thiophen-2-ylmethyl-amine] are 91.9% and 87.2%.
On the same counts, the results for `Cc1ccc(-c2csc3c(-c4ccc(N(C)C)cc4)cnc(NCc4ccccc4)c23)cc1` [Example 42, Benzyl-[7-(4-dimethylamino-phenyl)-3-p-tolyl-thieno[3,2-c]pyridin-4-yl]-amine] are 24.1% and 14.5%.
On to `Cc1ccc(-c2csc3c(-c4cccc(S(C)(=O)=O)c4)cnc(NCc4ccccc4)c23)cc1` [Example 41, Benzyl-[7-(3-methanesulfonyl-phenyl)-3-p-tolyl-thieno[3,2-c]pyridin-4-yl]-amine], for which the inhibition at 1 µM was 26.3% in experiment [1] and 39.8% in experiment [2].
On the same counts, the results for `Cc1cc2scc(-c3ccccc3)c2c(NCc2ccccc2)n1` [Example 50, Benzyl-(6-methyl-3-phenyl-thieno[3,2-c]pyridin-4-yl)-amine] are 23.7% and 50.8%.
For `Cc1ccc(-c2csc3c(-c4cccc(C(=O)O)c4)cnc(NCc4ccccc4)c23)cc1` [Example 38, 3-(4-Benzylamino-3-p-tolyl-thieno[3,2-c]pyridin-7-yl)-benzoic acid] the same measures were 41.3% and 84.8%.
For `c1ccc(-c2csc3ccnc(NCc4ccc5c(c4)OCCO5)c23)cc1` [Example 18, (2,3-Dihydro-benzo[1,4]dioxin-6-ylmethyl)-(3-phenyl-thieno[3,2-c]pyridin-4-yl)-amine] the same measures were 76.9% and 85.3%.
As for `c1ccc(CNc2nccc3scc(-c4ccccc4)c23)cc1` [Example 21, Benzyl-(3-phenyl-thieno[3,2-c]pyridin-4-yl)-amine], the inhibition at 1 µM is 61.5% in experiment [1] and 77.4% in experiment [2].
For `Cc1ccc(-c2csc3c(-c4ccccc4F)cnc(NCc4ccccc4)c23)cc1` [Example 43, Benzyl-[7-(2-fluoro-phenyl)-3-p-tolyl-thieno[3,2-c]pyridin-4-yl]-amine] the same measures were 13.6% and 26.3%.
On the same counts, the results for `Cc1ccc(-c2csc3c(-c4ccccc4O)cnc(NCc4ccccc4)c23)cc1` [Example 35, 2-(4-Benzylamino-3-p-tolyl-thieno[3,2-c]pyridin-7-yl)-phenol] are 12.6% and 33.3%.
For `Cc1ccc(-c2csc3c(-c4ccc(O)cc4)cnc(NCc4ccccc4)c23)cc1` [Example 37, 4-(4-Benzylamino-3-p-tolyl-thieno[3,2-c]pyridin-7-yl)-phenol] the same measures were 15.7% and 39.9%.
As to `Cc1ccc(-c2csc3c(-c4ccc(F)cc4)cnc(NCc4ccccc4)c23)cc1` [Example 45, Benzyl-[7-(4-fluoro-phenyl)-3-p-tolyl-thieno[3,2-c]pyridin-4-yl]-amine], the values for the inhibition at 1 µM in experiment [1] and in experiment [2] were 34% and 24.7%, respectively.
On the same counts, the results for `c1ccc(-c2csc3ccnc(NCc4cccs4)c23)cc1` [Example 14, (3-Phenyl-thieno[3,2-c]pyridin-4-yl)-thiophen-2-ylmethyl-amine] are 91.2% and 81.9%.
For `COc1cccc(-c2csc3ccnc(NCc4ccccc4)c23)c1` [Example 23, Benzyl-[3-(3-methoxy-phenyl)-thieno[3,2-c]pyridin-4-yl]-amine] the same measures were 58% and 79.6%.
For the molecule `Fc1ccc(-c2csc3ccnc(NCc4ccccc4)c23)cc1` [Example 22, Benzyl-[3-(4-fluoro-phenyl)-thieno[3,2-c]pyridin-4-yl]-amine], the inhibition at 1 µM was 68.6% in experiment [1] and 90.2% in experiment [2].
On the same counts, the results for `c1ccc(-c2csc3ccnc(NCc4ccco4)c23)cc1` [Example 26, Furan-2-ylmethyl-(3-phenyl-thieno[3,2-c]pyridin-4-yl)amine] are 48.4% and 80.4%.
For `Cc1ccc(-c2csc3ccnc(NCc4ccccc4)c23)cc1` [Example 24, Benzyl-(3-p-tolyl-thieno[3,2-c]pyridin-4-yl)-amine], the inhibition at 1 µM worked out at 81.2% in experiment [1] and 90.2% in experiment [2].

The record behind these values is patent US9216992B2, “Thieno[3,2-c]pyridine potassium channel inhibitors” (Xention Limited, priority 2005, dated 2015).
